# Assay results published in patent publication US8536133B2, “Selective high-affinity polydentate ligands and methods of making such” (Lawrence Livermore National Security, LLC., priority 2004, dated 2013).
# Molecular target: HLA-DR10 (Homo sapiens, UniProt P01911)
# Assay: Subsequent screenings of ligands for binding to HLA-DR10
# Chain of HLA-DR10 (P01911 30-266 with the stated changes): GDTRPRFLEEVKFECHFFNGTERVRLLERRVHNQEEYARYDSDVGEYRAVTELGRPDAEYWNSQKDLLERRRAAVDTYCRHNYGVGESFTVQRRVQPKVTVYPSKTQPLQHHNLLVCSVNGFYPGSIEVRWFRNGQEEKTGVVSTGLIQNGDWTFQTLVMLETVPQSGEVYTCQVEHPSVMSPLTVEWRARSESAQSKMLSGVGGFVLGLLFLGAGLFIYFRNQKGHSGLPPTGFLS
# Chain of HLA-DR10 (P01903 26-254 partner): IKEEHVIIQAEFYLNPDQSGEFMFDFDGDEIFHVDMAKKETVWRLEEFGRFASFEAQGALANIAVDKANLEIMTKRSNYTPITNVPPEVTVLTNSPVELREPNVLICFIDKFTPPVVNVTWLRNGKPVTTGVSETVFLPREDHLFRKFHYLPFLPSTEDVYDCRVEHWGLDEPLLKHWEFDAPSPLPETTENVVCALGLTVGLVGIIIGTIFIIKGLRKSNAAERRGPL
smiles,measurement,value
"Nc1ccc(Oc2ccc(C(=O)c3ccc(C(=O)c4ccc(Oc5ccc(N)cc5)cc4)cc3)cc2)cc1 [1,4-Phenylenebis[[4-(4-aminophenoxy)phenyl]methanone]]",observation with the target protein in screening,precipitated onto the target protein
